Data reported in PubChem BioAssay (NCI).
Where “and” joins values, the source holds several entries; their conditions need not be identical. Identical values can stand only once.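 These data come from cells grown in 96-well plates and exposed to compound for 48 hours at five concentrations. Abbreviation: GI50, concentration required for 50% inhibition of growth. TGI is the concentration that stops growth completely.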

Key:
Experiment in all cases: growth of human tumour cells (NCI), 48 h
[1] = tested on: HOP-92 NSCLC
[2] = tested on: SK-MEL-5 melanoma
[3] = tested on: UACC-62 melanoma
[4] = tested on: DU-145 prostate
[5] = tested on: SK-MEL-28 melanoma
[6] = tested on: KM12 colon
[7] = tested on: OVCAR-4 ovarian
[8] = tested on: 786-0 renal
[9] = tested on: MOLT-4 leukemia
[10] = tested on: NCI-H226 lung
[11] = tested on: SW-620 colon
[12] = tested on: OVCAR-5 ovarian
[13] = tested on: HS 578T breast

Structure (SMILES) | TGI [1] | TGI [2] | TGI [3] | TGI [4] | TGI [5] | TGI [6] | TGI [7] | TGI [8] | TGI [9] | TGI [10] | TGI [11] | TGI [12] | TGI [13] | GI50 [3] | GI50 [5] | GI50 [6] | GI50 [9] | GI50 [11] | GI50 [12]
CCOP1(=O)CC(C)=C(Cl)C(O)C1 (stereo not given) | > 100 µM | > 100 µM | > 100 µM | > 100 µM | > 100 µM | > 100 µM | > 100 µM | > 100 µM | > 100 µM | > 100 µM | > 100 µM | > 100 µM | > 100 µM | – | – | – | – | – | –
COc1ccc(OC)c(CNc2ccc(C(=O)O)cc2)c1 | > 100 µM | > 100 µM | > 100 µM | > 100 µM | > 100 µM | > 100 µM | > 100 µM | > 100 µM | > 100 µM | > 100 µM | > 100 µM | > 100 µM | > 100 µM | – | – | – | – | – | –
CCOC(=O)/C=C/CCO[Si](C)(C)C(C)(C)C | > 100 µM | > 100 µM | > 100 µM | > 100 µM | > 100 µM | > 100 µM | > 100 µM | > 100 µM | > 100 µM | > 100 µM | > 100 µM | > 100 µM | > 100 µM | – | – | – | – | – | –
c1ccc2oc(-c3ccc(-c4nc5ccccc5o4)c4c3CC4)nc2c1 | > 100 µM | > 100 µM | > 100 µM | > 100 µM | > 100 µM | > 100 µM | > 100 µM | > 100 µM | > 100 µM | > 100 µM | > 100 µM | > 100 µM | > 100 µM | – | – | – | – | – | –
O=C1CSC2(CC(/C=C/c3cccc([N+](=O)[O-])c3)=NN2c2cccc(S(=O)(=O)O)c2)N1c1nc2ccccc2s1 (stereo not given) | 40.3 µM | > 100 µM | 45.5 µM | 40.6 µM | > 100 µM | 42.2 µM | 72.1 µM | 31.8 µM | 64.9 µM | 77.5 µM | 76.4 µM | 52.1 µM | > 100 µM | – | – | – | – | – | –
COc1cc2c(c(O)c1OC)C(=O)[C@@H]1CCC(=O)N1C2 | > 100 µM | > 100 µM | > 100 µM | > 100 µM | > 100 µM | > 100 µM | > 100 µM | > 100 µM | > 100 µM | > 100 µM | > 100 µM | > 100 µM | > 100 µM | – | – | – | – | – | –
CC(=O)OCC(=O)O[C@@H]1[C@H]2[C@@H](OC(=O)c3ccccc3)[C@@H](C)C[C@]2(O)[C@H](OC(C)=O)[C@@]2(C)C(OC(C)=O)[C@]1(OC(C)=O)C[C@H]1C(=O)C(C)(C)C[C@@H]12 (stereo not given in full) | > 50 µM | > 50 µM | > 50 µM | > 50 µM | > 50 µM | > 50 µM | > 50 µM | > 50 µM | > 50 µM | > 50 µM | > 50 µM | > 50 µM | > 50 µM | – | – | – | – | – | –
COc1ccc(Oc2cccc(C3C4C(=O)N(c5ccc(C)c(Cl)c5)C(=O)C4ON3C(C(N)=O)c3ccccc3)c2)cc1 (stereo not given) | > 50 µM | 32.2 µM | 34.9 µM | 44.5 µM | > 50 µM | > 50 µM | > 50 µM | > 50 µM | 43.4 µM | 44.8 µM | > 50 µM | > 50 µM | > 50 µM | – | – | – | – | – | –
N#Cc1c2c(c(N)oc1=O)C(c1ccccc1)CC(=O)N2 (stereo not given) | > 100 µM | > 100 µM | > 100 µM | > 100 µM | > 100 µM | > 100 µM | > 100 µM | > 100 µM | > 100 µM | > 100 µM | > 100 µM | > 100 µM | > 100 µM | – | – | – | – | – | –
O=C(NC1CCN(Cc2ccccc2)CC1)c1ccc(I)cc1 | > 100 µM | > 100 µM | > 100 µM | > 100 µM | > 100 µM | > 100 µM | > 100 µM | > 100 µM | > 100 µM | > 100 µM | > 100 µM | > 100 µM | > 100 µM | – | – | – | – | – | –
CC1(C)OC(=S)N(c2ccccc2)C12C=Cc1ccccc1O2 (stereo not given) | > 100 µM | > 100 µM | > 100 µM | > 100 µM | > 100 µM | > 100 µM | > 100 µM | > 100 µM | 76.5 µM | > 100 µM | > 100 µM | > 100 µM | > 100 µM | – | – | – | – | – | –
O=[N+]([O-])c1ccc(OC2CC3C4C=CC3C2C4)c([N+](=O)[O-])c1 (stereo not given) | > 100 µM and 29.9 µM | > 100 µM | > 100 µM | > 100 µM | > 100 µM | > 100 µM | 76.3 µM and > 31.6 µM | > 100 µM | > 100 µM and 25.7 µM | > 100 µM | > 100 µM | > 100 µM | > 100 µM | 84.4 µM and > 31.6 µM | > 100 µM | > 100 µM | > 100 µM and 14.1 µM | > 100 µM | > 100 µM
[N-]=[N+]=NI1OC(=O)c2ccccc21 | > 100 µM | – | > 100 µM | > 100 µM | > 100 µM | > 100 µM | > 100 µM | > 100 µM | > 100 µM | > 100 µM | > 100 µM | > 100 µM | > 100 µM | – | – | – | – | – | –
CC1=NN(c2nc(N)nc(/C(C#N)=C\c3csc([N+](=O)[O-])c3)n2)C(C)(C)C1 | > 100 µM | > 100 µM | – | > 100 µM | > 100 µM | > 100 µM | 56.4 µM | 32.2 µM | > 100 µM | 76 µM | > 100 µM | > 100 µM | 54.9 µM | – | – | – | – | – | –
CCc1c(C)c(C#N)c(=S)n(C2OC(COC(C)=O)C(OC(C)=O)C(OC(C)=O)C2OC(C)=O)c1-c1ccccc1 (stereo not given) | > 31.6 µM | > 31.6 µM | – | > 31.6 µM | > 31.6 µM | > 31.6 µM | > 31.6 µM | > 31.6 µM | > 31.6 µM | > 31.6 µM | > 100 µM | > 31.6 µM | 68.2 µM | – | – | – | – | – | –
CC1(C)OCC([C@H]2O[C@@H](CC(=S)NCCCCCCCCCCCCNC(=S)C[C@H]3O[C@@H](C4COC(C)(C)O4)[C@H]4OC(C)(C)O[C@H]43)[C@H]3OC(C)(C)O[C@H]32)O1 (stereo not given in full) | > 100 µM | 92.4 µM | – | > 100 µM | > 100 µM | > 100 µM | > 100 µM | > 100 µM | 80.2 µM | > 100 µM | > 100 µM | > 100 µM | > 100 µM | – | – | – | – | – | –
